Experiment: Pharmacokinetics and biodistribution study in mice (IV and PO)
Type: in vivo, BALB/c mice
Procedure: Supplemental Figure 4: Mouse biodistribution of orally-administered 4. Mice were treated with a single dose of 4 by oral gavage (PO, 10 mg/kg). The mice were sacriﬁced at 30 min, 4 h, and 24 h after 4 administration, and the indicated tissues homogenized and analyzed for 4 by HPLC. While serum levels are much lower than […]
and kidney at 0.5 hours. At 4 and 24 h, as in the IV cohort, 4 remains at a higher concentration in the liver than in other tissues. Each data point represents the mean of 3 animals with error bars representing standard deviation (GraphPad Prism).
(also on this page, place not known: Serum Brain Liver Kidney Heart Spleen Lung 0 500 1000 1500 2000 Tissue h h (ng per g tissue) h 0.5 24 4)
(1 picture or pasted object on this page, not shown here)
The adherent monolayers were washed once with Hank’s buﬀered salt solution (Gibco), then inoculated with 100 µL of analyte and 100 µL of the supplemented MEM used to prepare the dilutions. The plates were rocked at 20 ◦C for 90 min, after which the inoculum was removed and nutrient-supplemented primary overlay (1 mL) was added to each well. The overlay was allowed to solidify at 20 ◦C, before returning the cells to the incubator. After 5 d, nutrient-supplemented, neutral red-containing secondary overlay (1 mL) was added to each well and allowed to solidify at 20 ◦C, then the cells were returned to the incubator.
After 1 d, plaques were observed and counted from the underside of the plate by eye.
5.10 Pharmacokinetics and Biodistribution Study
The study was carried out by Sai Life Science, Ltd. All procedures were in accordance with the guidelines provided by the Committee for the Purpose of Control and Supervisions of Experiments on Animals as published in The Gazette of India, December 15, 1998. Prior approval of the Institutional Animal Ethics Committee was obtained before initiation of the […]
18 healthy male BALB/c mice (8 – 12 weeks old) weighing between 20 and 35 g were procured from ACTREC, Mumbai, India. Illumination was controlled to give a cycle of 12 h light and 12 h dark. Temperature and humidity were recorded by an auto-controlled data logging system and maintained at 22± 3◦C and 55± 15% humidity, respectively. Animals were provided laboratory rodent diet (Vetcare India Pvt. Ltd.) and fresh reverse-osmosis, UV-treated water ad libitum. The mice were randomly divided into two groups. One group was treated with 4 intravenously (IV) at a dose of 2 mg/kg, while the other group was treated with an oral (per os, PO) dose of 10 mg/kg. The dosing volume was 5 mL/kg for IV treatment and 10 mL/kg for PO treatment. Blood samples were collected from three mice from each group under light isoﬂurane anaesthesia before dosing and at 0.25, 0.5, 1, 2, 4, 8 and 24 h after dosing. An additional blood sample was taken for the IV group at 0.08 h after dosing. After collection, potassium tetraethylenediamine was added to the sample as an anticoagulant. Plasma was immediately harvested by centrifugation and then stored at –70 ◦C until analysis. At 0.5, 4, and 24 h after dosing, 3 mice from each group

[1] = BALB/c mice, oral (PO, 10 mg/kg)
[2] = mice, single dose by oral gavage (PO, 10 mg/kg)

Structure (SMILES): Cc1c(C)c2c(c(C)c1OCCCCCN1CC(O)C(O)C(O)C1CO)CCC(C)(CCCC(C)CCCC(C)CCCC(C)C)O2 (centres unmarked) [Compound 4, 5′-tocopheroxypentyl-DNJ]
- change of amount present in the liver between the 4 and 24 h time points (BALB/c mice): did not decrease
- oral bioavailability (BALB/c mice): poor oral bioavailability
- maximum blood plasma concentration [1]: 46 nM
- time of maximum blood plasma concentration [1]: 8 h
- tissue in which compound was detected in the highest amounts (BALB/c mice, oral and intravenous administration): highest amounts in the liver
- half-life (male, mouse, plasma, BALB/c mice (Figure 3B), read-out: plasma terminal half-life (converted)): 527 min
- concentration in the liver relative to other tissues at 4 and 24 h [2]: higher
- tissue levels at 0.5 hours [2]: high levels are achieved in the liver
